US20180355359A1, “METHODS FOR DETERMINING RESISTANCE TO ANTICANCER THERAPY AND COMPOSITION USED THEREFOR” (SD GENOMICS CO., LTD., priority 2015, published 2018)

How the values were obtained:
[1] = tested on: K562; assay: Survival rate (CCK-8 assay) of CML cell line K562; assay type: cell-based; details: imatinib 0.6 μM
Description: (§1) CML cell lines (K562 and CML-T1 cell line) and a normal lymphoblastoid cell line (LCL) were inoculated into a 96-well plate in which DMEM medium containing 10% FBS, 100 units/mL penicillin, and […] streptomycin at a concentration of 3×10^3 cells/well and cultured under the conditions of 37° C. and 5% CO2.
(§2) In particular, the siRNAs used had the nucleotide sequences of SEQ ID NOS: 5 and 176 to 178.

[2] = tested on: CML-T1 cell line; assay: Survival rate (CCK-8 assay) of CML cell line CML-T1; assay type: cell-based; details: imatinib 0.6 μM
Description: as §1, §2

[3] = tested on: K562 cell line which induced the T315I mutation; assay: Survival rate (CCK-8 assay) of cell line with induced T315I somatic mutation; assay type: cell-based
Description: A cell line in which a somatic mutation of T315I was induced was prepared using the Clontech Guide-it CRISPR/Cas9 System and inoculated into a 96-well plate in which DMEM medium containing 10% FBS, 100 units/mL penicillin, and 100 μg/mL streptomycin at a concentration of 3×10^3 cells/well and cultured under the conditions of 37° C. and 5% CO2.

[4] = tested on: normal lymphoblastoid cell line (LCL); assay: Survival rate (CCK-8 assay) of normal lymphoblastoid cell line; assay type: cell-based
Description: as §1, §2

[5] = tested on: phospho CrkL/CrkL ratio; assay: Phospho-CRKL analysis (Phospho-CrkL (Tyr207) colorimetric cell-based ELISA) in K562
Description: A ratio of phosphorylated CRKL and CRKL (phospho CrkL/CrkL ratio) of the treated cell line was calculated using the Phospho-CrkL (Tyr207) Colorimetric Cell-Based enzyme linked immunosorbent assay (ELISA) kit and the results were compared (FIG. 10).

[6] = tested on: K562 cells; assay: Cell cycle analysis (PI staining, FACS) in K562 cells; assay type: cell-based; details: vs negative control siRNA
Description: (§3) CML cell lines (K562 cells and LAMA-84 cells) were treated with the two kinds of siRNAs having the nucleotide sequences of SEQ ID NOS: 5 and 176 to 178 (negative control siRNA or IS3 siRNA) and the cells were immobilized. These cells were subjected to PI staining and applied to FACSVerse (BD Biosciences, Franklin Lakes, N.J., U.S.A.) so as to measure the percentage of the cells located in the G0/G1 phase (FIGS. 11A and 11B).

[7] = tested on: LAMA-84 cells; assay: Cell cycle analysis (PI staining, FACS) in LAMA-84 cells; assay type: cell-based; details: vs negative control siRNA
Description: as §3

[8] = tested on: cancer cell lines of hematopoietic tissue or lymphatic tissue (LAMA84, KG-1, HL-60, NB-4, MOLM13, CCRF-CEM, U-937); assay: Survival rate (CCK-8 assay) of cancer cell lines of hematopoietic or lymphatic tissue; assay type: cell-based; details: 100 pmol siRNA per 200,000 cells, up to 72 hours; vs siCTRL; all 7 hematopoietic/lymphatic lines
Description: (§4) Specifically, the cancer cell lines of hematopoietic tissue or lymphatic tissue (e.g., LAMA84 (chronic myeloid leukemia in blast crisis), KG-1 (acute myeloid leukemia, FAB M2), HL-60 (acute myeloid leukemia, FAB M2), NB-4 (acute promyelocytic leukemia), MOLM13 (acute myeloid leukemia, FAB M5B), CCRF-CEM (T acute lymphoblastic leukemia), and U-937 (histiocytic lymphoma)); solid cancer cell lines (e.g., IMR-32 (neuroblastoma, KCLB, 10127), SNU-478 (ampulla of vater adenocarcinoma), MG-63 (osteosarcoma), Hs578T (breast invasive ductal carcinoma, KCLB, 30126), U-87MG (glioblastoma), SNU-886 (hepatocellular carcinoma), MIA-PaCa-2 (pancreatic ductal adenocarcinoma), SK-MEL-2 (malignant melanoma), RD (embryonal rhabdomyosarcoma), Hs 746T (gastric adenocarcinoma), and J-82 (bladder carcinoma)) were dispensed into a 96-well plate at a concentration of 3,000 to 5,000 cell lines/well and incubated in a wet incubator (37° C. and 5% CO2) having an environment similar to that of the human body and cultured for 3 days.
(§5) Each of the cultured cells was treated with the two kinds of siRNAs having the nucleotide sequences of SEQ ID NOS: 5 and 176 to 178 (negative control siRNA (siCTRL) or IS3 siRNA) at a concentration of 100 pmol based on 200,000 cells, cultured for up to 72 hours, and the survival rates of these cells were compared by the CCK-8 assay (FIGS. 12A to 12C).

[9] = tested on: solid cancer cell lines (IMR-32, SNU-478, MG-63, Hs578T, U-87MG, SNU-886, MIA-PaCa-2, SK-MEL-2, RD, Hs 746T, J-82); assay: Survival rate (CCK-8 assay) of solid cancer cell lines; assay type: cell-based; details: 100 pmol siRNA per 200,000 cells, up to 72 hours; vs siCTRL; all 11 solid cancer lines
Description: as §4, §5

Row | Compound | survival rate of the cell line [1] | survival rate of the cell line [2] | survival rate of the cell line ([3]; siRNA in combination with first generation anticancer agent (imatinib 10 nM)) | survival rate of the cell line ([3]; siRNA in combination with second generation anticancer agent (nilotinib or dasatinib 10 nM)) | survival rate of the cell line ([3]; siRNA used alone) | survival rate of the cell line [4] | phospho CrkL/CrkL ratio ([5]; HMGCLL1 IS3 siRNA and imatinib in combination) | phospho CrkL/CrkL ratio ([5]; treated individually) | percentage of the cells located in the G0/G1 phase [6] | percentage of the cells located in the G0/G1 phase [7] | survival rate of each cell line [8] | survival rate of each cell line [9]
1 | Cc1ccc(NC(=O)c2ccc(CN3CCN(C)CC3)cc2)cc1Nc1nccc(-c2cccnc2)n1 [imatinib, reference compound] | reduced | reduced |  |  |  |  |  |  |  |  |  | 
2 | HMGCLL1 IS3 siRNA: siRNA to HMGCLL1 isoform 3: sense GGUACCACAGGUUGCUGCU (SEQ ID NO: 178), antisense AGCAGCAACCUGUGGUACC (SEQ ID NO: 5) (listed as RNA, chemistry not given here) | reduced | reduced | further significantly reduced | further significantly reduced | reduced | not affected | reduced to the lowest level | reduced to similar levels | increased | increased | significantly reduced | significantly reduced
